From patent US20260354380A1, “PYRAZOLO PESTICIDAL COMPOUNDS” (BASF SE, priority 2022, published 2026)

Tests used:
Assay type in all cases: in vivo
Heliothis virescens = assay: Action on Tobacco Budworm (Heliothis virescens); conditions: 800 ppm; egg and larval mortality; 5 days
Experimental: Example B5: Action on Tobacco Budworm (Heliothis virescens)
For evaluating control of tobacco budworm (Heliothis virescens) the test unit consisted of 96-well-microtiter plates containing an insect diet and 15-25 H. virescens eggs.
The compounds were formulated using a solution containing 75% v/v water and 25% v/v DMSO. Different concentrations of formulated compounds were sprayed onto the insect diet at 10 μl, using a custom-built micro atomizer, at two replications.
After application, microtiter plates were incubated at about 28±1 °C and about 80±5% relative humidity for 5 days. Egg and larval mortality were then visually assessed.

Plutella xylostella = assay: Action on Diamond Back Moth (Plutella xylostella), cabbage leaf dip, 3rd instar larvae; conditions: 300 ppm; 3rd instar larvae; 72 hours after treatment
Experimental: Example B6: Action on Diamond Back Moth (Plutella xylostella)
The active compound is dissolved at the desired concentration in a mixture of 1:1 (v/v) distilled water:acetone. Surfactant (Kinetic® HV) is added at a rate of 0.01% (v/v). The test solution is prepared at the day of use.
Leaves of cabbage were dipped in test solution and air-dried. Treated leaves were placed in petri dishes lined with moist filter paper and inoculated with ten 3rd instar larvae. Mortality was recorded 72 hours after treatment. Feeding damages were also recorded using a scale of 0-100%.
(§1) Compounds disclosed in the document WO2021013561 were prepared according to procedures described therein and their pesticidal activities were determined by procedure analogues to the procedures as described above in examples B6 and B7.

Spodoptera eridania = assay: Action on Southern Armyworm (Spodoptera eridania), 2nd Instar Larvae; conditions: 300 ppm; 2nd instar larvae; 4 days after treatment
Experimental: Example B7: Action on Southern Armyworm (Spodoptera eridania), 2nd Instar Larvae
The active compounds were formulated by a Tecan liquid handler in 100% cyclohexanone as a 10,000 ppm solution supplied in tubes. The 10,000 ppm solution was serially diluted in 100% cyclohexanone to make interim solutions. These served as stock solutions for which final dilutions were made by the Tecan in 50% acetone: 50% water (v/v) into 10 or 20 ml glass vials. A nonionic surfactant (Kinetic®) was included in the solution at a volume of 0.01% (v/v). The vials were then inserted into an automated electrostatic sprayer equipped with an atomizing nozzle for application to plants/insects.
Lima bean plants (variety Sieva) were grown 2 plants to a pot and selected for treatment at the 1st true leaf stage. Test solutions were sprayed onto the foliage by an automated electrostatic plant sprayer equipped with an atomizing spray nozzle. The plants were dried in the sprayer fume hood and then removed from the sprayer. Each pot was placed into perforated plastic bags with a zip closure. About 10 to 11 armyworm larvae were placed into the bag and the bags zipped closed. Test plants were maintained in a growth room at about 25 °C and about 20-40% relative humidity for 4 days, avoiding direct exposure to fluorescent light (24 hour photoperiod) to prevent trapping of heat inside the bags. Mortality and reduced feeding were assessed 4 days after treatment, compared to untreated control plants.
as §1

Anthonomus grandis = assay: Action on Boll Weevil (Anthonomus grandis); conditions: 800 ppm; egg and larval mortality; 5 days
Experimental: Example B3: Action on Boll Weevil (Anthonomus grandis)
For evaluating control of boll weevil (Anthonomus grandis) the test unit consisted of 96-well-microtiter plates containing an insect diet and 5-10 A. grandis eggs.
The compounds were formulated using a solution containing 75% (v/v) water and 25% (v/v) DMSO. Different concentrations of formulated compounds were sprayed onto the insect diet at 5 μl, using a custom-built micro atomizer, at two replications.
After application, microtiter plates were incubated at about 25±1 °C and about 75±5% relative humidity for 5 days. Egg and larval mortality were then visually assessed.

Aedes aegypti = assay: whole plant or invertebrate; conditions: 800 ppm; larvae; 2 days
Experimental: Example B1: Action on Yellow Fever Mosquito (Aedes aegypti)
For evaluating control of yellow fever mosquito (Aedes aegypti) the test unit consisted of 96-well-microtiter plates containing 200 μl of tap water per well and 5-15 freshly hatched A. aegypti larvae.
The active compounds or mixtures were formulated using a solution containing 75% (v/V) water and 25% (v/v) DMSO. Different concentrations of formulated compounds or mixtures were sprayed onto the insect diet at 2.5 μl, using a custom-built micro atomizer, at two replications. For experimental mixtures in these tests identical volumes of both mixing partners at the desired concentrations respectively, were mixed together.
After application, microtiter plates were incubated at 28±1 °C, 80±5% RH for 2 days. Larval mortality was then visually assessed.

| Structure (SMILES) | mortality in comparison with untreated controls (Heliothis virescens) | mortality in comparison with untreated controls (Plutella xylostella) | mortality in comparison with untreated controls (Spodoptera eridania) | mortality in comparison with untreated controls (Anthonomus grandis) | mortality in comparison with untreated controls (Aedes aegypti) |
| --- | --- | --- | --- | --- | --- |
| Cc1ccc(C(C)C)c(N2C(=O)CSC2=NC(=O)Nc2ccc(-n3cc(NC(=O)c4ccc(C5CC5(Cl)Cl)cc4)c(C)n3)cc2)c1 (racemic) [Example C-89] | at least 75% | at least 75% | at least 75% | – | – |
| Cc1ccc(C(C)C)c(N2C(=O)CS/C2=N\C(=O)Nc2ccc(-n3cc(NC(=O)c4ccc(C#N)cc4)c(C)n3)cc2)c1 [Example C-33] | at least 75% | at least 75% | at least 75% | at least 75% | – |
| COC(C)(C)c1ccc(C(=O)Nc2cn(-c3ccc(NC(=O)N=C4SCC(=O)N4c4cc(C)ccc4C(C)C)cc3)nc2C)cc1 [Example C-61] | at least 75% | at least 75% | – | – | – |
| C#CCOc1ccc(C(=O)Nc2cn(-c3ccc(NC(=O)N=C4SCC(=O)N4c4cc(C)ccc4C(C)C)cc3)nc2C)cc1 [Example C-67] | at least 75% | at least 75% | at least 75% | – | at least 50% |
| CC(=O)c1ccc(C(=O)Nc2cn(-c3ccc(NC(=O)N=C4SCC(=O)N4c4cc(C)ccc4C(C)C)cc3)nc2C)cc1 [Example C-69] | – | – | at least 75% | – | – |
| Cc1ccc(C(C)C)c(N2C(=O)CSC2=NC(=O)Nc2ccc(-n3cc(NC(=O)c4ccc(C(C)C)cc4)c(C)n3)cc2)c1 [Example C-70] | at least 75% | at least 75% | – | – | at least 50% |
| Cc1ccc(C(C)C)c(N2C(=O)CSC2=NC(=O)Nc2ccc(-n3cc(NC(=O)c4ccc(C#CC5CC5)cc4)c(C)n3)cc2)c1 [Example C-72] | at least 75% | – | – | – | – |
| Cc1ccc(C(C)C)c(N2C(=O)CSC2=NC(=O)Nc2ccc(-n3cc(NC(=O)c4ccc(N(C)C)cc4)c(C)n3)cc2)c1 [Example C-75] | at least 75% | at least 75% | at least 75% | at least 75% | – |
| Cc1ccc(C(C)C)c(N2C(=O)CSC2=NC(=O)Nc2ccc(-n3cc(NC(=O)c4ccc(OCC#N)cc4)c(C)n3)cc2)c1 [Example C-76] | at least 75% | at least 75% | at least 75% | at least 75% | – |
| Cc1ccc(C(C)C)c(N2C(=O)CSC2=NC(=O)Nc2ccc(-n3cc(NC(=O)c4ccc(C5(F)COC5)cc4)c(C)n3)cc2)c1 [Example C-77] | at least 75% | at least 75% | – | at least 75% | – |
| Cc1ccc(C(C)C)c(N2C(=O)CSC2=NC(=O)Nc2ccc(-n3cc(NC(=O)c4ccc(CC#N)cc4)c(C)n3)cc2)c1 [Example C-78] | at least 75% | at least 75% | at least 75% | at least 75% | – |
| CCc1ccc(C(=O)Nc2cn(-c3ccc(NC(=O)N=C4SCC(=O)N4c4cc(C)ccc4C(C)C)cc3)nc2C)cc1 [Example C-80] | at least 75% | at least 75% | – | at least 75% | at least 50% |
| CSc1ccc(C(=O)Nc2cn(-c3ccc(NC(=O)N=C4SCC(=O)N4c4cc(C)ccc4C(C)C)cc3)nc2C)cc1 [Example C-83] | at least 75% | at least 75% | – | at least 75% | at least 50% |
| Cc1ccc(C(C)C)c(N2C(=O)CSC2=NC(=O)Nc2ccc(-n3cc(NC(=O)c4cnc(C#N)nc4)c(C)n3)cc2)c1 [Example C-84] | – | at least 75% | – | – | – |
| CCOc1ccc(C(=O)Nc2cn(-c3ccc(NC(=O)N=C4SCC(=O)N4c4cc(C)ccc4C(C)C)cc3)nc2C)cc1 [Example C-85] | at least 75% | at least 75% | at least 75% | – | – |
| Cc1ccc(C(C)C)c(N2C(=O)CSC2=NC(=O)Nc2ccc(-n3cc(NC(=O)c4ccc(C5(C#N)CC5)cc4)c(C)n3)cc2)c1 [Example C-86] | at least 75% | at least 75% | at least 75% | – | – |
| C=Cc1ccc(C(=O)Nc2cn(-c3ccc(NC(=O)N=C4SCC(=O)N4c4cc(C)ccc4C(C)C)cc3)nc2C)cc1 [Example C-87] | at least 75% | at least 75% | – | at least 75% | at least 50% |
| Cc1ccc(C(C)C)c(N2C(=O)CSC2=NC(=O)Nc2ccc(-n3cc(NC(=O)c4ccc(C#N)nc4)c(C)n3)cc2)c1 [Example C-90] | – | at least 75% | – | at least 75% | – |
| Cc1ccc(C(C)C)c(N2C(=O)CSC2=NC(=O)Nc2ccc(-n3cc(NC(=O)c4ccc(S(C)(=O)=O)cc4F)c(C)n3)cc2)c1 [Example C-91] | at least 75% | at least 75% | at least 75% | at least 75% | – |
| Cc1ccc(C(C)C)c(N2C(=O)CSC2=NC(=O)Nc2ccc(-n3cc(NC(=O)c4ccc(C5(C)COC5)cc4)c(C)n3)cc2)c1 [Example C-92] | at least 75% | at least 75% | – | at least 75% | – |
| Cc1ccc(C(C)C)c(N2C(=O)CSC2=NC(=O)Nc2ccc(-n3nc(C)c(NC(=O)c4ccc(F)cc4)c3C)cc2Cl)c1 [Example C-124] | – | – | at least 75% | – | – |
| Cc1ccc(C(C)C)c(N/C(=N/C(=O)Nc2ccc(-n3cc(NC(=O)c4ccc(OC(F)(F)F)cc4)c(C)n3)cc2)SCOC(=O)C(C)C)c1 [Example C-129] | at least 75% | at least 75% | – | at least 75% | at least 50% |
| Cc1ccc(C(C)C)c(N2C(=O)CSC2=NC(=O)Nc2ccc(-n3cc(NC(=O)c4ccc(OC(F)(F)F)cc4)c(C)n3)cc2Cl)c1 [Example C-131] | – | – | at least 75% | – | – |
| Cc1ccc(C(C)C)c(N2C(=O)CSC2=NC(=O)Nc2ccc(-n3cc(NC(=O)c4ccc(Cl)cc4Cl)c(C)n3)cc2Cl)c1 [Example C-132] | – | – | at least 75% | – | – |
